Measurements as given in paper PMC10339131, “Characterization of two bacterial multi-flavinylated proteins harboring multiple covalent flavin cofactors” (BBA Advances, 2023).

Columns and labels:
[1] = molecular target: T1, SaFMN3 (Streptomyces azureus, UniProt A0A0K8PVQ4); experiment: ESI-MS of intact protein; TCA precipitation; UV-visible spectrum; assay type: binding; details: covalent; three FMN sites, threonyl phosphoester; attached by co-expressed ApbE
T1 construct: gene SAZU_6878; N-terminal residues 1-48 (signal/membrane anchor) removed; His6-SUMO fusion, cleaved; E. coli BL21-AI with ApbE and CaFADS; mainly monomer; three FMN domains
T1 sequence (A0A0K8PVQ4 49-352): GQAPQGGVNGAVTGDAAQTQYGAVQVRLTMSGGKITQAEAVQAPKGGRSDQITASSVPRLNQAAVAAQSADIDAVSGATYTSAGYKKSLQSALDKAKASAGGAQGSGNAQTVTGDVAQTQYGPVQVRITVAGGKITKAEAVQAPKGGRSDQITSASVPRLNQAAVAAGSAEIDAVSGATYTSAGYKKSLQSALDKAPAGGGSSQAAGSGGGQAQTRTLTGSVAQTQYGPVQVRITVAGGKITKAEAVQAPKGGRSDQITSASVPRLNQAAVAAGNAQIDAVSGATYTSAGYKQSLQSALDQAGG

[2] = molecular target: T2, CbFMN4-D1 (Clostridiaceae bacterium, UniProt Z9KOB2RJF1); experiment: X-ray crystal structure, […] A; assay type: binding; details: covalent; bound via Thr67 (domain numbering); attached by co-expressed ApbE
T2 construct: expressed in E. coli BL21-AI with ApbE and CaFADS; SUMO cleaved; two molecules per asymmetric unit from crystal packing
T2 sequence (Z9KOB2RJF1 1-85): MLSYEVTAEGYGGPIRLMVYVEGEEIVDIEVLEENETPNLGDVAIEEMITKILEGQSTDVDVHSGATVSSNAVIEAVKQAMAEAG

SMILES: Cc1cc2nc3c(=O)[nH]c(=O)nc-3n(C[C@H](O)[C@H](O)[C@H](O)COP(=O)(O)O)c2cc1C [FMN]
- ESI-MS of intact protein; TCA precipitation; UV-visible spectrum [1]: exactly corresponds to the predicted mass of fully flavinylated SaFMN3
- X-ray crystal structure, 2.60 A [2]: Both CbFMN4-D1 molecules have a covalently bound FMN via Thr67.
